The results in this text go back to patent US20240041042A1, “1-(PYRIDYL)-5-AZINYLPYRAZOLE DERIVATIVES, AND THEIR USE FOR CONTROL OF UNDESIRED PLANT GROWTH” (Bayer Aktiengesellschaft, priority 2020, published 2024).

Assay type in all cases: in vivo
One data set has as its system Lolium rigidum (LOLRI). The data set can be described thus: Post-emergence herbicidal action against LOLRI. The gist of the method: (§1)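 Post-emergence greenhouse spray, one-leaf stage, 600 l/ha water plus 0.5% additive; WP or EC formulations; application rates 320 g/ha or lower. Visual % damage vs untreated controls at ~3 weeks.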
Data set [1] deals with Verconica persica (VERPE). The data set can be described thus: Post-emergence herbicidal action against VERPE. The gist of the method: as §1
Data set [2] deals with Triticum aestivum (TRZAS). To be noted: crop plant compatibility, effect vs untreated controls. Put shortly: (§2)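 Foliar application at the one-leaf stage: WP/EC formulation, 0.5% additive, 600 l/ha water. Greenhouse-grown in sandy loam. Endpoint is visual % injury relative to untreated controls at about 3 weeks.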
The subject of a further data set is Zea mays (ZEAMX). To be noted: for Post-emergence action against ZEAMX in % (crop plant compatibility): 20 g/ha, effect in comparison to untreated controls; for Post-emergence action against ZEAMX in %: crop plant compatibility, 80 g/ha, effect vs untreated controls. The gist of the method: as §2
The next data set concerns Oryza sativa (ORYSA). Particulars: crop plant compatibility. The gist of the method:
as §2

Data set [3] has as its system Echinochloa crus-galli (ECHCG). The data set can be described thus: Post-emergence herbicidal action against ECHCG. The gist of the method: as §1
The test system of another data set is Setaria viridis (SETVI). Put plainly: Post-emergence herbicidal action against SETVI. Put shortly:
as §1

For data set [4], the system named is Amaranthus retroflexus (AMARE). Put plainly: Post-emergence herbicidal action against AMARE. Put shortly:
as §1

The subject of the next data set is Viola tricolor (VIOTR). The data set can be described thus: Post-emergence herbicidal action against VIOTR. The gist of the method: as §1
The test system of another data set is Avena fatua (AVEFA). The data set can be described thus: Post-emergence herbicidal action against AVEFA. Particulars: 320 g/ha, visual rating about 3 weeks after treatment. Put shortly: as §1
The test system of data set [5] is Matricaria inodora (MATIN). Put plainly: Post-emergence herbicidal action against MATIN. Put shortly:
as §1

The test system of data set [6] is Abutilon theophrasti (ABUTH). Put plainly: Post-emergence herbicidal action against ABUTH. To be noted: visual rating about 3 weeks after treatment vs untreated controls (100% = plants have died, 0% = like control plants). Put shortly:
as §1

The subject of data set [7] is Digitaria sanguinalis (DIGSA). The data set can be described thus: Post-emergence herbicidal action against DIGSA. To be noted: visual rating about 3 weeks after treatment. Put shortly:
as §1

The test system of data set [8] is Alopecurus myosuroides (ALOMY). The data set can be described thus: Post-emergence herbicidal action against ALOMY. To be noted: 320 g/ha, visual rating about 3 weeks after treatment vs untreated controls (100% = plants have died, 0% = like control plants). Put shortly:
as §1

Data set [9] deals with Pharbitis purpurea (PHBPU). The data set can be described thus: Post-emergence herbicidal action against PHBPU. Put shortly: as §1
For data set [10], the system named is Polygonum convolvulus (POLCO). Put plainly: Post-emergence herbicidal action against POLCO. The gist of the method: as §1
[11] abbreviates: 20 g/ha, effect vs untreated controls.
Where [12] appears, read: 80 g/ha, effect in comparison to untreated controls.
[13] abbreviates: 80 g/ha, visual rating about 3 weeks after treatment vs untreated controls (100% = plants have died, 0% = like control plants).
The mark [14] stands for this setting: 320 g/ha, visual rating about 3 weeks after treatment.

Where two headings read alike, the source gives them in different places.

With `O=C(COc1nn(-c2ncccc2F)c(-c2ccc(F)nc2)c1C1CC1)OCc1ccccc1` [Example I-287], the “Post-emergence action against LOLRI in %” value in the data set on Lolium rigidum (LOLRI) (dosage 80 g/ha) and with Lolium rigidum (LOLRI) (dosage 320 g/ha) was 90% throughout. The “Post-emergence action against VERPE in %” value in data set [1] (320 g/ha, VERPE) came out at 80%; in [1] (dosage 80 g/ha) it was 80%. The “Post-emergence action against TRZAS in %” value in data set [2] (20 g/ha) was 20%. For the same molecule, the “Post-emergence action against ZEAMX in % (crop plant compatibility)” value in the data set with Zea mays (ZEAMX) is 10%. In addition, in the data set on Zea mays (ZEAMX), the “Post-emergence action against ZEAMX in %” value amounted to 20%. Besides, the “Post-emergence action against ORYSA in %” value in the data set with Oryza sativa (ORYSA) (setting [11]) worked out at 0%; in the data set with Oryza sativa (ORYSA) (setting [12]) it was 20%. Also, the “Post-emergence action against ECHCG in %” value in [3] (dosage 80 g/ha) and in data set [3] (dosage 320 g/ha) was 90% throughout. Moreover, the “Post-emergence action against SETVI in %” value in the data set with Setaria viridis (SETVI) (dosage 80 g/ha) and with Setaria viridis (SETVI) (dosage 320 g/ha) was 90% in each case. The “Post-emergence action against AMARE in %” value in data set [4] (setting [13]) and in data set [4] (setting [14]) was 80% throughout. For the same molecule, the “Post-emergence action against VIOTR in %” value in the data set on Viola tricolor (VIOTR) (80 g/ha) is reported as 80%; in the data set on Viola tricolor (VIOTR) (320 g/ha) it was 90%. Also, the “Post-emergence action against AVEFA in %” value in the data set on Avena fatua (AVEFA) amounted to 90%. Moreover, the “Post-emergence action against MATIN in %” value in data set [5] (dosage 320 g/ha) is 80%. The “Post-emergence action against ABUTH in %” value in [6] (320 g/ha) is given as 90%. Moreover, the “Post-emergence action against DIGSA in %” value in data set [7] (80 g/ha) and in data set [7] (320 g/ha) was 80% in each case. Moreover, in data set [8], the “Post-emergence action against ALOMY in %” value is 90%. For the same molecule, in data set [9] (dosage 320 g/ha), the “Post-emergence action against PHBPU in %” value worked out at 80%.
Take `COC(=O)CCOC(=O)COc1nn(-c2cccnc2C)c(-c2cncc(F)c2)c1Br` [II-41]: the “Post-emergence action against VERPE in %” value is reported as 90% in data set [1] (320 g/ha, VERPE) and 90% in [1] (dosage 80 g/ha). The “Post-emergence action against TRZAS in %” value in data set [2] (20 g/ha) and in [2] (80 g/ha) was 0% throughout. The “Post-emergence action against ZEAMX in % (crop plant compatibility)” value with Zea mays (ZEAMX) turned out to be 0%. In addition, in the data set on Zea mays (ZEAMX), the “Post-emergence action against ZEAMX in %” value came to 0%. For the same molecule, the “Post-emergence action against ORYSA in %” value in the data set with Oryza sativa (ORYSA) (setting [11]) was determined as 0%; with Oryza sativa (ORYSA) (setting [12]) it was 0%; in the data set with Oryza sativa (ORYSA) (320 g/ha, effect in comparison to untreated controls), 0%. In addition, the “Post-emergence action against ECHCG in %” value in data set [3] (dosage 320 g/ha) came to 90%. In the data set with Setaria viridis (SETVI) (dosage 320 g/ha), the “Post-emergence action against SETVI in %” value stood at 90%. Further, the “Post-emergence action against AMARE in %” value in data set [4] (setting [14]) is 80%. Further, the “Post-emergence action against VIOTR in %” value in the data set on Viola tricolor (VIOTR) (80 g/ha) is on record as 80%; in the data set with Viola tricolor (VIOTR) (320 g/ha), 90%. Also, the “Post-emergence action against AVEFA in %” value in the data set on Avena fatua (AVEFA) was 90%. The “Post-emergence action against MATIN in %” value in data set [5] (dosage 320 g/ha) is reported as 80%. For the same molecule, the “Post-emergence action against ABUTH in %” value in data set [6] (320 g/ha) was 80%. For the same molecule, the “Post-emergence action against DIGSA in %” value in [7] (320 g/ha) was 80%. Also, the “Post-emergence action against ALOMY in %” value in data set [8] was 90%. Besides, the “Post-emergence action against PHBPU in %” value in data set [9] (dosage 80 g/ha) is on record as 80%; in data set [9] (dosage 320 g/ha) it was 90%.
Regarding `COC(=O)COc1nn(-c2ncccc2C)c(-c2cncc(F)c2)c1Br` [Example I-179], the “Post-emergence action against VERPE in %” value in [1] (320 g/ha, VERPE) was found to be 90%; in data set [1] (dosage 80 g/ha), 90%. Besides, in data set [2] (20 g/ha), the “Post-emergence action against TRZAS in %” value turned out to be 0%. Moreover, the “Post-emergence action against ZEAMX in %” value with Zea mays (ZEAMX) stood at 20%. Besides, the “Post-emergence action against ORYSA in %” value was found to be 0% in the data set with Oryza sativa (ORYSA) (setting [11]) and 20% with Oryza sativa (ORYSA) (setting [12]). Besides, the “Post-emergence action against POLCO in %” value in data set [10] (dosage 80 g/ha) and in data set [10] (dosage 320 g/ha) was 90% each time. Also, the “Post-emergence action against ECHCG in %” value in data set [3] (dosage 80 g/ha) and in data set [3] (dosage 320 g/ha) was 90% in each case. The “Post-emergence action against SETVI in %” value with Setaria viridis (SETVI) (dosage 80 g/ha) and in the data set on Setaria viridis (SETVI) (dosage 320 g/ha) was 90% in each case. The “Post-emergence action against AMARE in %” value in [4] (setting [13]) and in [4] (setting [14]) was 90% throughout. The “Post-emergence action against VIOTR in %” value with Viola tricolor (VIOTR) (80 g/ha) and in the data set on Viola tricolor (VIOTR) (320 g/ha) was 90% in each case. The “Post-emergence action against AVEFA in %” value in the data set on Avena fatua (AVEFA) is recorded as 90%. Further, the “Post-emergence action against MATIN in %” value in data set [5] (dosage 80 g/ha) amounted to 80%; in data set [5] (dosage 320 g/ha) it was 90%. For the same molecule, the “Post-emergence action against ABUTH in %” value in [6] (80 g/ha) and in data set [6] (320 g/ha) was 80% in each case. In addition, the “Post-emergence action against DIGSA in %” value in [7] (80 g/ha) and in data set [7] (320 g/ha) was 90% each time. In addition, in data set [8], the “Post-emergence action against ALOMY in %” value is 90%. Moreover, the figures for the “Post-emergence action against PHBPU in %” value in data set [9] (dosage 80 g/ha) and in data set [9] (dosage 320 g/ha) were 80% and 90%, respectively.
As to `CCOC(=O)COc1nn(-c2cccnc2C)c(-c2cncc(F)c2)c1Br` [II-45], the “Post-emergence action against VERPE in %” value in [1] (320 g/ha, VERPE) stood at 90%; in data set [1] (dosage 80 g/ha), 90%. Further, the “Post-emergence action against TRZAS in %” value in [2] (20 g/ha) is on record as 0%. The “Post-emergence action against ORYSA in %” value in the data set with Oryza sativa (ORYSA) (setting [11]) and with Oryza sativa (ORYSA) (setting [12]) was 0% each time. In addition, the figures for the “Post-emergence action against POLCO in %” value in [10] (dosage 80 g/ha) and in [10] (dosage 320 g/ha) were 80% and 90%, respectively. For the same molecule, the “Post-emergence action against ECHCG in %” value in data set [3] (dosage 320 g/ha) amounted to 90%. The “Post-emergence action against SETVI in %” value in the data set with Setaria viridis (SETVI) (dosage 320 g/ha) amounted to 90%. Moreover, in data set [4] (setting [14]), the “Post-emergence action against AMARE in %” value amounted to 80%. Also, the “Post-emergence action against VIOTR in %” value in the data set on Viola tricolor (VIOTR) (80 g/ha) and in the data set with Viola tricolor (VIOTR) (320 g/ha) was 90% each time. Also, the “Post-emergence action against AVEFA in %” value with Avena fatua (AVEFA) stood at 90%. In addition, in [5] (dosage 320 g/ha), the “Post-emergence action against MATIN in %” value was found to be 90%. The “Post-emergence action against ABUTH in %” value in [6] (320 g/ha) was found to be 80%. The “Post-emergence action against DIGSA in %” value in data set [7] (320 g/ha) is listed as 80%. Moreover, the “Post-emergence action against ALOMY in %” value in [8] amounted to 90%. The “Post-emergence action against PHBPU in %” value in [9] (dosage 320 g/ha) was determined as 90%.
